Reference: the NIST ThermoML archive (doi:10.1016/j.jct.2014.10.007)
“And” between values parts separate entries of the source, which are not always exact repeats. Equal entries are not always repeated.

Assay: molar heat capacity at constant pressure; xn = mol fraction of the nth substance listed
Settings: 1 kPa, Liquid, Small sample (50 mg) DSC

[Ca+2].[F-].[F-] [calcium fluoride] + [F-].[Li+]
Settings | molar heat capacity at constant pressure
1255 K, x1 = 0.25 | 98.98 J/K/mol
1255.2 K, x1 = 0.125 | 70.22 J/K/mol
1255.2 K, x1 = 0.375 | 113.91 J/K/mol
1274.7 K, x1 = 0.25 | 102.2 J/K/mol
1275 K, x1 = 0.375 | 118.44 J/K/mol
1275.1 K, x1 = 0.125 | 82.4 J/K/mol
1294.9 K, x1 = 0.25 | 103.71 J/K/mol
1294.9 K, x1 = 0.375 | 121.83 J/K/mol
1305.1 K, x1 = 0.125 | 80.92 J/K/mol
1314.9 K, x1 = 0.25 | 96.32 J/K/mol
1315.2 K, x1 = 0.375 | 118.21 J/K/mol
1325.3 K, x1 = 0.125 | 79.47 J/K/mol
1334.9 K, x1 = 0.5 | 133.92 J/K/mol and 120.41 J/K/mol
1335.2 K, x1 = 0.25 | 98.52 J/K/mol
1335.2 K, x1 = 0.375 | 115.41 J/K/mol
1345.4 K, x1 = 0.125 | 83.81 J/K/mol
1354.9 K, x1 = 0.5 | 125.69 J/K/mol and 133.39 J/K/mol
1355.4 K, x1 = 0.125 | 82.43 J/K/mol
1355.5 K, x1 = 0.375 | 116.94 J/K/mol
1355.6 K, x1 = 0.25 | 98.96 J/K/mol
1375.4 K, x1 = 0.5 | 130.29 J/K/mol and 135.8 J/K/mol
1375.5 K, x1 = 0.375 | 117.98 J/K/mol
1375.7 K, x1 = 0.125 | 75.1 J/K/mol
1375.7 K, x1 = 0.25 | 95.16 J/K/mol
1395.9 K, x1 = 0.5 | 132.9 J/K/mol and 134.28 J/K/mol
1396 K, x1 = 0.125 | 81.03 J/K/mol
1396.1 K, x1 = 0.25 | 106.8 J/K/mol
1396.2 K, x1 = 0.375 | 111.04 J/K/mol
1415.9 K, x1 = 0.5 | 130.4 J/K/mol and 137.28 J/K/mol
1416 K, x1 = 0.125 | 75.28 J/K/mol
1416.1 K, x1 = 0.25 | 101.47 J/K/mol
1416.1 K, x1 = 0.375 | 112.61 J/K/mol
1436.2 K, x1 = 0.125 | 76.95 J/K/mol
1436.2 K, x1 = 0.5 | 135.89 J/K/mol and 130.39 J/K/mol
1436.3 K, x1 = 0.375 | 112.16 J/K/mol
1436.4 K, x1 = 0.25 | 102.59 J/K/mol
1456.5 K, x1 = 0.375 | 120.54 J/K/mol
1456.5 K, x1 = 0.5 | 134.58 J/K/mol and 132.82 J/K/mol
1456.6 K, x1 = 0.125 | 77.21 J/K/mol
1456.8 K, x1 = 0.25 | 102.41 J/K/mol
1476.7 K, x1 = 0.5 | 147.97 J/K/mol and 127.49 J/K/mol
1476.8 K, x1 = 0.125 | 83.38 J/K/mol
1476.9 K, x1 = 0.375 | 111.58 J/K/mol
1477 K, x1 = 0.25 | 101.6 J/K/mol
1497.1 K, x1 = 0.125 | 90.8 J/K/mol
1497.1 K, x1 = 0.375 | 123.99 J/K/mol
1497.1 K, x1 = 0.5 | 143.74 J/K/mol and 127.89 J/K/mol
1497.2 K, x1 = 0.25 | 101.05 J/K/mol
1517.3 K, x1 = 0.125 | 97.18 J/K/mol
1517.4 K, x1 = 0.5 | 142.13 J/K/mol and 123.38 J/K/mol
1517.5 K, x1 = 0.375 | 109.29 J/K/mol
1517.6 K, x1 = 0.25 | 104.18 J/K/mol
